Laboratory results published in ChEMBL document CHEMBL3792354, “Design, synthesis and evaluation of novel ferulic acid-memoquin hybrids as potential multifunctional agents for the treatment of Alzheimer's disease” (Bioorg Med Chem Lett, 2016).

How the values were obtained:
[1] = biological target: Cholinesterase (Equus caballus) (UniProt P81908); experiment: Inhibition of equine serum BuChE at 50 uM pre-incubated for 15 mins before butylthiocholine chloride substrate addition by Ellman assay
[2] = biological target: Acetylcholinesterase (Electrophorus electricus, UniProt O42275); experiment: Inhibition of Electrophorus electricus AChE pre-incubated for 15 mins before acetylthiocholine chloride substrate addition by Ellman assay
Chain of Acetylcholinesterase (O42275 whole entry): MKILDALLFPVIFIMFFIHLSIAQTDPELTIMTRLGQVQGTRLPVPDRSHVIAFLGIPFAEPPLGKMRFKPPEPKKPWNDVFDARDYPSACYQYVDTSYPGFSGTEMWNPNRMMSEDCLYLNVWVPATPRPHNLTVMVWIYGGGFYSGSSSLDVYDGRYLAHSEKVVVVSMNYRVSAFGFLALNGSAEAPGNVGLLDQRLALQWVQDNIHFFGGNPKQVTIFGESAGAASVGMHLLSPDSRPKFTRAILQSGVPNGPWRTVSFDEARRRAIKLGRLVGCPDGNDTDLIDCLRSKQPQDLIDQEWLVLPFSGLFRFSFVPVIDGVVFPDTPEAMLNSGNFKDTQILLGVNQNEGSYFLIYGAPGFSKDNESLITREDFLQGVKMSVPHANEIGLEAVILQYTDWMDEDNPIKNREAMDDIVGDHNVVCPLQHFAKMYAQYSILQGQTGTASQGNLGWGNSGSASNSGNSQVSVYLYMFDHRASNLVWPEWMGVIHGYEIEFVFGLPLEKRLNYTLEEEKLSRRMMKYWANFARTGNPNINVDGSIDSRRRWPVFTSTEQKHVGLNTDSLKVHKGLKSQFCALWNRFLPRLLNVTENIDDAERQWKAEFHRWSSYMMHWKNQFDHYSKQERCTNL

[3] = biological target: Amyloid-beta precursor protein (Homo sapiens) (UniProt P05067); experiment: Inhibition of self-induced amyloid beta (1 to 42) aggregation (unknown origin) at 25 uM by Thioflavin T-based fluorometric assay
Chain of Amyloid-beta precursor protein (Homo sapiens) (P05067 whole entry): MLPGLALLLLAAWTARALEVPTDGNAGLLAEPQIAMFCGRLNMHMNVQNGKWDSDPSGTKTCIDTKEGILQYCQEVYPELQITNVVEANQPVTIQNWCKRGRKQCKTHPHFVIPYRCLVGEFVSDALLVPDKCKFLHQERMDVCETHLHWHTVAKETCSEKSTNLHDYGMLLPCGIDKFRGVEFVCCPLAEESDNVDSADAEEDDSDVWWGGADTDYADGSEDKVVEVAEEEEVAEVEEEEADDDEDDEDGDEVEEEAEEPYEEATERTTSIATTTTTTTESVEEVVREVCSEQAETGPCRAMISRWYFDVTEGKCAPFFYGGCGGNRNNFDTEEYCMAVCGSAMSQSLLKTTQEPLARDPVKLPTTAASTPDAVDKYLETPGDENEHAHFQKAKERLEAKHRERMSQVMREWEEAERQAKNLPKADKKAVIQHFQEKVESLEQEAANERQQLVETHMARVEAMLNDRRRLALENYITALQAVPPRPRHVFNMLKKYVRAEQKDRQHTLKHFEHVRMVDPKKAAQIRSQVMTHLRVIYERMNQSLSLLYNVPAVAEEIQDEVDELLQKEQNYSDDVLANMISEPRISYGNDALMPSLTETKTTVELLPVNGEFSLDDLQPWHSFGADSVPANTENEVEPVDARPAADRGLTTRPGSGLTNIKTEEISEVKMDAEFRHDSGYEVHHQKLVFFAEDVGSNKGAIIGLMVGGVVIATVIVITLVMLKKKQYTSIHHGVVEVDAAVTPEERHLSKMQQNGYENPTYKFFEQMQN

[4] = Antioxidant activity assessed as AAPH radical scavenging activity by measuring Trolox equivalent per microM of test compound measured every minute for 90 mins by ORAC-FL assay; type: physicochemical; conditions: 1.5 h
[5] = in vitro; conditions: PAMPA
Description: Permeability of the compound at 100 ug/ml by PAMPA-BBB assay

[6] = biological target: Amyloid-beta precursor protein (Homo sapiens) (UniProt P05067); experiment: Induction of disaggregation of self-induced amyloid beta (1 to 42) fibril formation (unknown origin) at 25 uM incubated for 24 hrs by Thioflavin T-based fluorometric assay
[7] = biological target: Amyloid-beta precursor protein (Homo sapiens) (UniProt P05067); experiment: Inhibition of self-induced amyloid beta (1 to 42) aggregation (unknown origin) by Thioflavin T-based fluorometric assay
[8] = test system: SH-SY5Y; experiment: Neuroprotective activity against hydrogen peroxide-induced cell injury in human SH-SY5Y cells assessed as cell viability at 10 uM incubated for 3 hrs after H2O2 exposure for 24 hrs by MTT assay; type: functional; conditions: read-out: Activity
[9] = biological target: Amyloid-beta precursor protein (Homo sapiens) (UniProt P05067); experiment: Inhibition of self-induced amyloid beta (1 to 42) aggregation (unknown origin) at 10 uM by Thioflavin T-based fluorometric assay
[10] = test system: SH-SY5Y; experiment: Neuroprotective activity against hydrogen peroxide-induced cell injury in human SH-SY5Y cells assessed as cell viability incubated for 3 hrs after H2O2 exposure for 24 hrs by MTT assay; type: functional, cell-based
[11] = Toxicity in human SH-SY5Y cells assessed as cell viability at 10 uM incubated for 24 hrs by MTT assay; type: cell-based; conditions: read-out: Activity
[12] = biological target: Amyloid-beta precursor protein (Homo sapiens) (UniProt P05067); experiment: Inhibition of self-induced amyloid beta (1 to 42) aggregation (unknown origin) at 50 uM by Thioflavin T-based fluorometric assay
[13] = test system: SH-SY5Y; experiment: Neuroprotective activity against hydrogen peroxide-induced cell injury in human SH-SY5Y cells assessed as cell viability at 1 uM incubated for 3 hrs after H2O2 exposure for 24 hrs by MTT assay; type: functional; conditions: read-out: Activity

Chain of Cholinesterase (Equus caballus) (P81908 whole entry): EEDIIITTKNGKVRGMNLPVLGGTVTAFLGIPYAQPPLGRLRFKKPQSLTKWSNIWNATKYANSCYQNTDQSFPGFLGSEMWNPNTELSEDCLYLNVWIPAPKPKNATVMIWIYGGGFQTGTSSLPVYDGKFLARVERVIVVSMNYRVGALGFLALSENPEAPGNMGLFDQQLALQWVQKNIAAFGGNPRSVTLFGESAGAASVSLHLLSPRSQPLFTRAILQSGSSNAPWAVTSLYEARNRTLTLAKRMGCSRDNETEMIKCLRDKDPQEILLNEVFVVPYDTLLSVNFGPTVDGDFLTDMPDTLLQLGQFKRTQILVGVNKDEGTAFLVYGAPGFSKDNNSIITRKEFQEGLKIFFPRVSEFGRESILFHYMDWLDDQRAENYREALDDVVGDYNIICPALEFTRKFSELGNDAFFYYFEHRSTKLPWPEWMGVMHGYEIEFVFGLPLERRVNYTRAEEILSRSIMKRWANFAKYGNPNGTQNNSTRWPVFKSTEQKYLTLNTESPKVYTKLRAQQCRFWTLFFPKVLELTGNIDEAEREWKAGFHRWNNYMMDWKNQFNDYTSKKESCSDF

Q: Which inhibition [1] does the source give for `COc1cc(/C=C/C(=O)NCCCCCCN(C)Cc2ccccc2)ccc1O` here?
A: < 5%

Q: What about the IC50 [2] of the same molecule?
A: 15.1 µM

Q: What about the inhibition [3] of the same molecule?
A: 31.2%

Q: What about the Activity [4] of the same molecule?
A: 1.2 equiv

Q: With `CCN(CCCCNC(=O)/C=C/c1ccc(O)c(OC)c1)Cc1ccccc1OC` as the molecule, how does the inhibition [1] read?
A: < 5%

Q: And the IC50 [2]?
A: 8.6 µM

Q: What about the inhibition [3] of the same molecule?
A: 38.3%

Q: And the Activity [4]?
A: 1.3 equiv

Q: For `CCN(CCCCCCNC(=O)/C=C/c1ccc(O)c(OC)c1)Cc1ccccc1`, which inhibition [1] is on record?
A: 17.2%

Q: What about the IC50 [2] of the same molecule?
A: 8.2 µM

Q: What about the inhibition [3] of the same molecule?
A: 37.4%

Q: And the Activity [4]?
A: 1.1 equiv

Q: Which results are given for `CCN(CCCCCCNC1=CC(=O)C(NCCCCCCN(CC)Cc2ccccc2OC)=CC1=O)Cc1ccccc1OC` [MEMOQUIN]?
A: inhibition [1]: 5.8%; IC50 [2]: 0.0067 µM; inhibition [3]: 72.7%

Q: With `COc1cc(/C=C/C(=O)O)ccc1O` [FERULATE] as the molecule, how does the inhibition [1] read?
A: < 5%

Q: What about the IC50 [2] of the same molecule?
A: > 100 µM

Q: And the inhibition [3]?
A: 28.3%

Q: What about the Activity [4] of the same molecule?
A: 1.1 equiv

Q: For `CCn1cc(C(=O)O)c(=O)c2cc(F)c(N3CCNC(C)C3)c(F)c21` (stereo not drawn) [LOMEFLOXACIN], which Papp at 100 ug/ml [5] is on record?
A: 0.52 ×10⁻⁶ cm/s

Q: With `COc1cc(/C=C/C(=O)CC(=O)/C=C/c2ccc(O)c(OC)c2)ccc1O` as the molecule, how does the Activity [6] read?
A: 57.6%

Q: For `COc1cc(/C=C/C(=O)NCCCN(C)Cc2ccccc2)ccc1O`, which inhibition [1] is on record?
A: < 5%

Q: And the IC50 [2]?
A: 34.7 µM

Q: What about the inhibition [3] of the same molecule?
A: 39.1%

Q: What about the Activity [4] of the same molecule?
A: 1.2 equiv

Q: Which inhibition [1] does the source give for `CCN(CCCCNC(=O)/C=C/c1ccc(O)c(OC)c1)Cc1ccccc1` here?
A: < 5%

Q: And the IC50 [2]?
A: 16.5 µM

Q: And the inhibition [3]?
A: 33.8%

Q: And the Activity [4]?
A: 1.1 equiv

Q: For `CCN(CCCNC(=O)/C=C/c1ccc(O)c(OC)c1)Cc1ccccc1OC`, which inhibition [1] is on record?
A: 31.4%

Q: And the IC50 [2]?
A: 15.9 µM

Q: What about the inhibition [3] of the same molecule?
A: 35.2%

Q: And the Activity [4]?
A: 1.1 equiv

Q: What does the source list for `COc1cc(/C=C/C(=O)NCCCCN(C)Cc2ccccc2)ccc1O`?
A: inhibition [1]: < 5%; IC50 [2]: 29.6 µM; inhibition [3]: 31.6%; Activity [4]: 1.3 equiv

Q: For `COc1cc(/C=C/C(=O)NCCCCCCN(C)Cc2ccccc2OC)ccc1O`, which inhibition [1] is on record?
A: 27.6%

Q: And the IC50 [2]?
A: 8.5 µM

Q: What about the inhibition [3] of the same molecule?
A: 36.6%

Q: What about the Activity [4] of the same molecule?
A: 1.3 equiv

Q: Which inhibition [1] does the source give for `CCN(CCCNC(=O)/C=C/c1ccc(O)c(OC)c1)Cc1ccccc1` here?
A: < 5%

Q: What about the IC50 [2] of the same molecule?
A: 31.4 µM

Q: What about the inhibition [3] of the same molecule?
A: 33.3%

Q: And the Activity [4]?
A: 0.9 equiv

Q: Which Papp at 100 ug/ml [5] does the source give for `CC(=O)[C@H]1CC[C@H]2[C@@H]3CCC4=CC(=O)CC[C@]4(C)[C@H]3CC[C@]12C` [PROGESTERONE] here?
A: 15.9 ×10⁻⁶ cm/s

Q: With `CN1C(C(=O)Nc2ccccn2)=C(O)c2ccccc2S1(=O)=O` [PIROXICAM] as the molecule, how does the Papp at 100 ug/ml [5] read?
A: 0.63 ×10⁻⁶ cm/s

Q: With `CCN(CCCCCCNC(=O)/C=C/c1ccc(O)c(OC)c1)Cc1ccccc1OC` as the molecule, how does the inhibition [1] read?
A: 36.2%

Q: What about the inhibition [7] of the same molecule?
A: Dose-dependent effect

Q: What about the viability at 10 µM [8] of the same molecule?
A: 88.3%

Q: And the inhibition [9]?
A: 26.8%

Q: What about the Activity [6] of the same molecule?
A: 45.5%

Q: What about the Activity [10] of the same molecule?
A: Dose-dependent effect

Q: What about the IC50 [2] of the same molecule?
A: 3.2 µM

Q: And the inhibition [3]?
A: 38.1%

Q: What about the viability at 24 h, 10 µM [11] of the same molecule?
A: 98.3%

Q: And the Papp at 100 ug/ml [5]?
A: 5.53 ×10⁻⁶ cm/s

Q: And the inhibition [12]?
A: 49.3%

Q: And the Activity [4]?
A: 1.2 equiv

Q: What about the viability at 1 µM [13] of the same molecule?
A: 68.6%

Q: What does the source list for `COc1cc(/C=C/C(=O)NCCCN(C)Cc2ccccc2OC)ccc1O`?
A: inhibition [1]: 15.8%; IC50 [2]: 25.1 µM; inhibition [3]: 30.8%; Activity [4]: 1.3 equiv

Q: With `COc1cc(/C=C/C(=O)NCCCCN(C)Cc2ccccc2OC)ccc1O` as the molecule, how does the inhibition [1] read?
A: 34.6%

Q: What about the IC50 [2] of the same molecule?
A: 18 µM

Q: What about the inhibition [3] of the same molecule?
A: 32.5%

Q: And the Activity [4]?
A: 1.2 equiv
